Common to all, as to format: cell-based
The test system of assay [1] is p-p70 S6 Kinase (Thr389) in MCF-7 cells. In words: AlphaLISA Ultra pS6K1 assay. The conditions noted are these: Homo sapiens, 1.5 h; MCF7 cells, 90 min. In short, it runs like this: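 MCF-7 cells seeded 20–24 h, given fresh medium 2 h, then treated with compounds 90 min (0.5% DMSO final). Cells lysed, lysates frozen at −80 °C, then Thr389-phosphorylated S6K1 detected by AlphaLISA Ultra with acceptor beads 2 h, then donor beads 2 h.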

Assay [2] has as its system p-Akt 1/2/3 (Ser473) in MCF-7 cells. Description: AlphaLISA Ultra pAKT assay. The conditions noted are these: Homo sapiens, 1.5 h; MCF7 cells, 90 min. The method in brief: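 MCF-7 cells (16,000˜20,000 per well in 36 μL medium) were seeded in Corning 3701 plates for 20˜24 hour, refreshed with new medium for 90 minutes, then given 12 μL of 4× compound (0.5% final DMSO). Cells were lysed with 2× lysis buffer, and lysate was analyzed by AlphaLISA Ultra pAKT using acceptor and donor beads, read on an EnSpire reader.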

The test system of the next assay is mTORC1 over mTORC2. Description: mTORC1 over mTORC2 selectivity by comparing pS6K1 and pAKT IC50. The conditions noted are these: by comparing pS6K1 and pAKT IC50, 90 min. In short, it runs like this: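 MCF-7 cells were treated with compounds (0.5% final DMSO) for 90 minutes in one protocol and 2 hours in the other, then lysed. Phospho-signal in lysates was read by bead-based donor/acceptor proximity assay. pS6K1 and pAKT IC50 values were compared to judge mTORC1 over mTORC2 selectivity, at 90 min and at 24 hrs.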

For the compound `CO[C@@H]1C[C@H](C[C@@H](C)[C@@H]2CC(=O)[C@H](C)/C=C(\C)[C@@H](O)[C@@H](OC)C(=O)[C@H](C)C[C@H](C)/C=C/C=C/C=C(\C)[C@@H](OCC3COCCO3)C[C@@H]3CC[C@@H](C)[C@@](O)(O3)C(=O)C(=O)N3CCCC[C@H]3C(=O)O2)CC[C@H]1OCCCO` (stereo partly drawn) [I-93, (24E,26E,28E,29E,35R,36S,37R,38R,40S,42S,44S,45S,47R,48R,57R)-44-(1,4-dioxan-2-ylmethoxy)-47,57-dihydroxy-45-[(1R)-2-[(1S,3R,4R)-4-(3-hydroxypropoxy)-3-methoxy-cyclohexyl]-1-methyl-ethyl]-48-methoxy-35,36,37,38,49,50-hexamethyl-69,70-dioxa-58-azatricyclohexatriaconta-24,26,28(49),29(50)-tetraene-51,52,53,54,55-pentone], the figures for the concentration for half-maximal inhibition (IC50) in assay [1] and in assay [2] were 0.001 to 0.01 µM and at least 1 µM, respectively. Also, the “mTORC1 selective @ 90 min” value in the assay on mTORC1 over mTORC2 is “Yes”.

In the case of `COCCO[C@@H]1CC[C@@H](C[C@@H](C)[C@@H]2CC(=O)[C@H](C)/C=C(\C)[C@@H](OC)[C@@H](OC)C(=O)[C@H](C)C[C@H](C)/C=C/C=C/C=C(\C)C(OCCOC3COC3)C[C@@H]3CC[C@@H](C)[C@@](O)(O3)C(=O)C(=O)N3CCCC[C@H]3C(=O)O2)C[C@H]1OC` (stereo partly drawn) [I-94, (25E,27E,29E,30E,36R,37S,38R,39R,41S,43S,46S,48R,49R,58R)-58-hydroxy-48,49-dimethoxy-46-[(1R)-2-[(1S,3R,4R)-3-methoxy-4-(2-methoxyethoxy)cyclohexyl]-1-methyl-ethyl]-36,37,38,39,50,51-hexamethyl-45-[2-(oxetan-3-yloxy)ethoxy]-67,68-dioxa-59-azatricyclohexatriaconta-25,27,29(50),30(51)-tetraene-52,53,54,55,56-pentone], the figures for the half-inhibitory concentration (IC50) in assay [1] and in assay [2] were 0.01 to 0.1 µM and at least 1 µM, respectively. Besides, the “mTORC1 selective @ 90 min” value with mTORC1 over mTORC2 is on record as “Yes”.

Consider `CO[C@@H]1/C(C)=C/[C@@H](C)C(=O)C[C@@H]([C@H](C)C[C@@H]2CC[C@@H](OC)[C@H](OC)C2)OC(=O)[C@@H]2CCCCN2C(=O)C(=O)[C@]2(O)O[C@@H](CC[C@H]2C)CC(OCCOCCN(C)C)/C(C)=C/C=C/C=C/[C@@H](C)C[C@@H](C)C(=O)[C@@H]1OC` (stereo partly drawn) [I-95, (25E,27E,29E,30E,36R,37S,38R,39R,41S,43S,46S,47R,48R,57R)-46-[(1R)-2-[(1S,3R,4R)-3,4-dimethoxycyclohexyl]-1-methyl-ethyl]-45-[2-[2-(dimethylamino)ethoxy]ethoxy]-57-hydroxy-47,48-dimethoxy-36,37,38,39,49,50-hexamethyl-66,67-dioxa-58-azatricyclohexatriaconta-25,27,29(49),30(50)-tetraene-51,52,53,54,55-pentone], for which the concentration for half-maximal inhibition (IC50) in assay [1] was 0.1 to 1 µM; in assay [2] it was at least 1 µM. Moreover, the “mTORC1 selective @ 90 min” value in the assay on mTORC1 over mTORC2 is reported as “Yes”.

On to `CO[C@@H]1/C(C)=C/[C@@H](C)C(=O)C[C@@H]([C@H](C)C[C@@H]2CC[C@@H](O)[C@H](OC)C2)OC(=O)[C@@H]2CCCCN2C(=O)C(=O)[C@]2(O)O[C@@H](CC[C@H]2C)C[C@@H](OCCOC2COC2)/C(C)=C/C=C/C=C/[C@@H](C)C[C@@H](C)C(=O)[C@@H]1OC` [I-96], for which the IC50 in assay [1] and in assay [2] was at least 1 µM throughout. Also, in the assay with mTORC1 over mTORC2, the “mTORC1 selective @ 90 min” value was “No”.

In the case of `CO[C@@H]1C[C@H](C[C@@H](C)[C@@H]2CC(=O)[C@H](C)/C=C(\C)[C@@H](O)[C@@H](OC)C(=O)[C@H](C)C[C@H](C)/C=C/C=C/C=C(\C)C(OCC3COCCO3)C[C@@H]3CC[C@@H](C)[C@@](O)(O3)C(=O)C(=O)N3CCCC[C@H]3C(=O)O2)CC[C@H]1OC(=O)N(C)CCN1CCOCC1` (stereo partly drawn) [I-99, [(40S,42R,44R)-4-[(2R)-2-[(27E,29E,31E,32E,36R,37S,38R,39R,41S,43S,45S,46S,47R,48R,58R)-47,58-dihydroxy-45,48-dimethoxy-36,37,38,39,49,50-hexamethyl-51,52,53,54,55-pentaoxo-71,72-dioxa-60-azatricyclohexatriaconta-27,29,31(49),32(50)-tetraen-46-yl]propyl]-44-methoxy-42-cyclohexyl]N-methyl-N-(2-morpholinoethyl)carbamate], the results for the IC50 in assay [1] and in assay [2] were 0.001 to 0.01 µM and at least 1 µM, respectively. Further, the “mTORC1 selective @ 90 min” value in the assay with mTORC1 over mTORC2 was “Yes”.

For `CO[C@@H]1C[C@H](C[C@@H](C)[C@@H]2CC(=O)[C@H](C)/C=C(\C)[C@@H](O)[C@@H](OC)C(=O)[C@H](C)C[C@H](C)/C=C/C=C/C=C(\C)[C@H](OCCOC3COC3)C[C@@H]3CC[C@@H](C)[C@@](O)(O3)C(=O)C(=O)N3CCCC[C@H]3C(=O)O2)CC[C@H]1OCCCN1C[C@@H](C)O[C@@H](C)C1` [I-100, (27E,29E,31E,32E,39R,40S,41R,44R,46S,48S,50R,51S,53R,54R,63R)-51-[(1R)-2-[(1S,3R,4R)-4-[3-[(2S,6R)-2,6-dimethylmorpholin-4-yl]propoxy]-3-methoxy-cyclohexyl]-1-methyl-ethyl]-53,63-dihydroxy-54-methoxy-39,40,41,44,55,56-hexamethyl-50-[2-(oxetan-3-yloxy)ethoxy]-75,76-dioxa-64-azatricyclohexatriaconta-27,29,31(55),32(56)-tetraene-57,58,59,60,61-pentone], the IC50 in assay [1] was 0.001 to 0.01 µM; in assay [2] it was at least 1 µM. In addition, the “mTORC1 selective @ 90 min” value in the assay on mTORC1 over mTORC2 is “Yes”.

For `CO[C@@H]1C[C@H](C[C@@H](C)[C@@H]2CC(=O)[C@H](C)/C=C(\C)[C@@H](O)[C@@H](OC)C(=O)[C@H](C)C[C@H](C)/C=C/C=C/C=C(\C)[C@@H](OCCOC3COC3)C[C@@H]3CC[C@@H](C)[C@@](O)(O3)C(=O)C(=O)N3CCCC[C@H]3C(=O)O2)CC[C@H]1OCCCN1C[C@@H](C)O[C@@H](C)C1` [I-101, (27E,29E,31E,32E,39R,40S,41R,44R,46S,48S,50S,51S,53R,54R,63R)-51-[(1R)-2-[(1S,3R,4R)-4-[3-[(2S,6R)-2,6-dimethylmorpholin-4-yl]propoxy]-3-methoxy-cyclohexyl]-1-methyl-ethyl]-53,63-dihydroxy-54-methoxy-39,40,41,44,55,56-hexamethyl-50-[2-(oxetan-3-yloxy)ethoxy]-75,76-dioxa-64-azatricyclohexatriaconta-27,29,31(55),32(56)-tetraene-57,58,59,60,61-pentone], the IC50 in assay [1] was 0.01 to 0.1 µM; in assay [2] it was at least 1 µM. In addition, the “mTORC1 selective @ 90 min” value with mTORC1 over mTORC2 is listed as “Yes”.

Consider `CO[C@@H]1C[C@H](C[C@@H](C)[C@@H]2CC(=O)[C@H](C)/C=C(\C)[C@@H](O)[C@@H](OC)C(=O)[C@H](C)C[C@H](C)/C=C/C=C/C=C(\C)[C@H](OCC3COCCO3)C[C@@H]3CC[C@@H](C)[C@@](O)(O3)C(=O)C(=O)N3CCCC[C@H]3C(=O)O2)CC[C@H]1OC(=O)NCCN1CCOCC1` (stereo partly drawn) [I-102, [(42S,44R,46R)-4-[(2R)-2-[(28E,30E,32E,33E,38R,39S,40R,41R,43S,45S,47R,48S,50R,51R,61R)-47-(1,4-dioxan-2-ylmethoxy)-50,61-dihydroxy-51-methoxy-38,39,40,41,52,53-hexamethyl-54,55,56,57,58-pentaoxo-76,77-dioxa-64-azatricyclohexatriaconta-28,30,32(52),33(53)-tetraen-48-yl]propyl]-46-methoxy-44-cyclohexyl] N-(2-morpholinoethyl)carbamate], for which the concentration for half-maximal inhibition (IC50) was below 0.001 µM in assay [1] and at least 1 µM in assay [2]. For the same compound, the “mTORC1 selective @ 90 min” value with mTORC1 over mTORC2 is given as “Yes”.

For `CO[C@@H]1C[C@H](C[C@@H](C)[C@@H]2CC(=O)[C@H](C)/C=C(\C)[C@@H](O)[C@@H](OC)C(=O)[C@H](C)C[C@H](C)/C=C/C=C/C=C(\C)[C@@H](OCC3COCCO3)C[C@@H]3CC[C@@H](C)[C@@](O)(O3)C(=O)C(=O)N3CCCC[C@H]3C(=O)O2)CC[C@H]1OC(=O)NCCN1CCOCC1` (stereo partly drawn) [I-103, [(42S,44R,46R)-4-[(2R)-2-[(28E,30E,32E,33E,38R,39S,40R,41R,43S,45S,47S,48S,50R,51R,61R)-47-(1,4-dioxan-2-ylmethoxy)-50,61-dihydroxy-51-methoxy-38,39,40,41,52,53-hexamethyl-54,55,56,57,58-pentaoxo-76,77-dioxa-64-azatricyclohexatriaconta-28,30,32(52),33(53)-tetraen-48-yl]propyl]-46-methoxy-44-cyclohexyl] N-(2-morpholinoethyl)carbamate], the IC50 in assay [1] is 0.001 to 0.01 µM; in assay [2], at least 1 µM. Also, the “mTORC1 selective @ 90 min” value in the assay with mTORC1 over mTORC2 is “Yes”.

Regarding `CO[C@@H]1C[C@H](C[C@@H](C)[C@@H]2CC(=O)[C@H](C)/C=C(\C)[C@@H](O)[C@@H](OC)C(=O)[C@H](C)C[C@H](C)/C=C/C=C/C=C(\C)[C@H](OCCOC3COC3)C[C@@H]3CC[C@@H](C)[C@@](O)(O3)C(=O)C(=O)N3CCCC[C@H]3C(=O)O2)CC[C@H]1OC(F)F` [I-104, (23E,25E,27E,28E,32R,33S,34R,35R,37S,39S,41R,42S,44R,45R,55R)-42-[(1R)-2-[(1S,3R,4R)-4-(difluoromethoxy)-3-methoxy-cyclohexyl]-1-methyl-ethyl]-44,55-dihydroxy-45-methoxy-32,33,34,35,46,47-hexamethyl-41-[2-(oxetan-3-yloxy)ethoxy]-65,66-dioxa-56-azatricyclohexatriaconta-23,25,27(46),28(47)-tetraene-48,49,50,51,52-pentone], the IC50 in assay [1] is 0.01 to 0.1 µM; in assay [2], at least 1 µM. Also, in the assay on mTORC1 over mTORC2, the “mTORC1 selective @ 90 min” value is “Yes”.
